Measurements from article PMC6916019, “In vitro anti-malarial efficacy of chalcones: cytotoxicity profile, mechanism of action and their effect on erythrocytes” (Malaria Journal, 2019).
In brackets after ≈: the same amount, converted by molar mass. Where a name gives a salt, the structure may show the parent alone. Read-outs that look alike come from different tables or passages of the source.

Columns and labels:
[1] = tested on: normal erythrocytes; assay: Haemolysis assay on normal erythrocytes; conditions: Conc. = 12.5 μg/mL, 3 h, 37 °C
Procedure: (§5) Briefly, fresh erythrocytes were centrifuged for 5 min at 1600 rpm for at least thrice in PBS and then the remaining pellet was re-suspended in PBS at 2% hematocrit. One hundred microlitres of this suspended pellet was added to 96-well sterile culture plate having test compounds at different desired concentrations. PBS alone (for baseline values) and 0.4% Triton X-100 in PBS (for 100% haemolysis) were employed as controls. After keeping at 37 °C for 3 h, the test samples were centrifuged and the supernatant was used for determination of the haemolytic activity quantified in terms of haemoglobin release as monitored spectrophotometrically by taking absorbance at 415 nm [33]. The experiment was done in triplicate and the mean ± SD was calculated [33, 34]. %Haemolysis=[Absorbanceofsample415nm-Absorbanceofblanksample415nm/Absorbanceofpositivecontrol415nm]∗100

[2] = tested on: HeLa cell line; assay: MTT cytotoxicity / cell viability assay; conditions: MTT, 24 h, not in table head
Procedure: (§6) Cytotoxicity of the compounds on mammalian cells were accomplished employing HeLa cell line (NCCS, Pune) cultured in DMEM supplemented with 10% FBS by the MTT (3-(4,5-dimethylthiazol-2-yl)-2,5-diphenyltetrazolium bromide) microenzymatic method with certain modifications [32]. Briefly, cells (10^4 cells/200 μL/well) were seeded into 96-well flat-bottom sterile tissue culture plates in complete medium. After 24 h of seeding, the test compounds at different dilutions were added and kept for another 24 h in a humidified chamber with 5% CO2 at 37 °C. Twenty microlitres of MTT (5.00 mg/mL in 1XPBS) stock solution were pipetted into each well, mixed and incubated for at least 3–4 h. After incubation, the plates were centrifuged at 1500 rpm for 5 min. The supernatant was disposed cautiously and 100 μL of DMSO were added to each well to lyse the cell and dissolve the insoluble purple formazan product into a coloured solution. Absorbance was taken at 570 nm to determine formazan formation as a measurement of cell viability. Experiments were performed in triplicate.

[3] = tested on: P. falciparum chloroquine resistant strain (RKL-9); assay: WHO Mark III schizont maturation inhibition assay, chloroquine resistant strain; format: cell-based, Plasmodium falciparum; conditions: for Selective index (SI) P.falciparum chloroquine^R (RKL-9): SI = CC50 (HeLa)/IC50 (RKL-9); for Resistance Index (RI) IC50 (RKL-9)/IC50 (MRC-2): ratio of IC50 resistant / sensitive strain; for IC50: read-out: P. falciparum Chloroquine^R Strain (RKL-9) IC50; for IC90: read-out: P. falciparum Chloroquine^R Strain (RKL-9) IC90
Procedure: (§1) These strains were perpetuated in vitro in continuous culture according to the method of Trager and Jensen with slight modifications. Briefly, both sensitive and resistant strains of P. falciparum were maintained in A+ erythrocytes in RPMI-1640 medium (having glutamine, but without any sodium bicarbonate) comprising 1.00 g of dextrose, 5.94 g of HEPES buffer, 40.00 mg of gentamycin. Additionally supplemented with 5% sodium bicarbonate and 10% (v/v) inactivated human AB+ serum then incubated in gas mixture of 5% CO2, 5% O2 and 90% N2 at 37 °C. Parasitized erythrocytes at initial 5% haematocrit were suspended in above mentioned culture medium and parasitaemia was regularly checked to maintain level between 2 and 4% with further sub-culturing for parasitaemia beyond 5%. Growth and multiplication of parasite was monitored by microscopy using Giemsa-stained slides.
(§2) To obtain ring stages of the parasite, the cultures were synchronized using D-sorbitol. The cultures, with majority of ring stages, were treated with equal volume of aqueous 5% D-sorbitol for 5 min and then after centrifugation pellet were suspended in complete medium and fresh erythrocytes synchronized culture with 1% parasitaemia and 5% haematocrit were used for compound concentration response assay.
(§3) The concentration of each test compound needed to hinder multiplication of parasites by 50% (IC50) against P. falciparum strains were obtained through concentration response assay performed in 96-well sterile tissue culture plates. Synchronized parasite cultures were applied to different doses of each compound. Dilutions were performed in gentamycin-free culture medium, and incubated at 37 °C having gaseous mixture (5% CO2, 5% O2 and 90% N2) supply for 24 h. The results were expressed as IC50 values computed from HN-NonLin Regression analysis, as well as mean percentage inhibition ± standard error examined by thick smear Giemsa stained slides. %ParasiteInhibition29,30=100-TotalnumberofSchizontsintestwells/TotalnumberofSchizontsincontrolwell∗100
(§4) Parasite at ring stage was used for compound concentration response assay with parasitaemia of 1% at 5% haematocrit. […] The IC50 and IC90 values of all compounds were determined and the resistance index between the two sensitive and resistant strains was calculated (Table 2). […] The percentage inhibition in schizont maturation was also calculated after incubation of ring stage P. falciparum till 24 h at the same range of drug concentrations (Table 3).

[4] = tested on: P. falciparum chloroquine sensitive strain (MRC-2); assay: microbe, parasite or virus in culture; conditions: for % Schizont maturation inhibition ± SD (MRC-2): Conc. = 6.25 μg/mL; for % Schizont maturation inhibition ± SD (MRC-2) / P. falciparum Chloroquine^s Strain (MRC-2) IC50 / P. falciparum Chloroquine^s Strain (MRC-2) IC90: 24 h; for Selective index (SI) P.falciparum chloroquine^s (MRC-2): SI = CC50 (HeLa)/IC50 (MRC-2); for P. falciparum Chloroquine^s Strain (MRC-2) IC50 / P. falciparum Chloroquine^s Strain (MRC-2) IC90: schizont maturation, ring stage
Procedure: as §1, §2, §3, §4

[5] = tested on: HeLa cell line
Procedure: as §6

[6] = tested on: haemozoin (β-haematin) production in P. falciparum cultures; assay: Haemozoin inhibition assay in P. falciparum cultures; format: cell-based, Plasmodium falciparum; conditions: drug near IC50 concentration, 48 h; untreated control 547.61 ± 9.52
Procedure: Briefly, the test cultures were centrifuged for 5–10 min at 1300 rpm to dispose of the culture medium. Infected erythrocyte pellet (mingled of β-haematin and erythrocyte membrane) were exposed to 0.01% saponin lysis for 10 min at 25 °C to lyse erythrocyte to release parasites. […] The haemozoin content was quantified by taking the absorbance at 400 nm and using a standard curve prepared from β-haematin. The amount of haemozoin formed in relation to control was calculated. All assays were performed in triplicate.

[7] = MTT cytotoxicity / cell viability assay; conditions: human, HeLa cells
Procedure: as §6

[8] = in vitro
Procedure: as §5

[9] = tested on: Plasmodium; conditions: comparison value, reference not given; cited from earlier work
[10] = schizont maturation, 24 h, ring stage
[11] = Plasmodium falciparum, schizont maturation, 24 h, ring stage
[12] = Plasmodium falciparum, artemisinin, unit ng/mL

| SMILES | % Schizont maturation inhibition ± SD (RKL-9) ([3]; Conc. = 6.25 μg/mL, 24 h) | Selective index (SI) P.falciparum chloroquine^R (RKL-9) [3] | Resistance Index (RI) IC50 (RKL-9)/IC50 (MRC-2) [3] | P. falciparum Chloroquine^R Strain (RKL-9) IC50 [3, 10] | P. falciparum Chloroquine^R Strain (RKL-9) IC90 [3, 10] | % Schizont maturation inhibition ± SD (MRC-2) [4] | Selective index (SI) P.falciparum chloroquine^s (MRC-2) [4] | P. falciparum Chloroquine^s Strain (MRC-2) IC50 [4] | P. falciparum Chloroquine^s Strain (MRC-2) IC90 [4] | HeLa Cell CC50 [5] | also measured |
| --- | --- | --- | --- | --- | --- | --- | --- | --- | --- | --- | --- |
| O=C(/C=C/c1cc2ccccc2[nH]1)c1ccc(Cl)cc1 [Chalcone 9] | 48.87 ± 25.46% | 7.85 | 0.84 | 0.21 µg/mL | 0.95 µg/mL | 50.32 ± 33.23% | 6.60 | 0.25 µg/mL | 0.96 µg/mL | – | % Hemolysis ± SD [1]: 1.30 ± 0.009%; HeLa Cell CC50 [2]: 1.65 µg/mL |
| O=C(/C=C/c1cc2ccccc2[nH]1)c1ccc(I)cc1 [Chalcone 10] | 49.62 ± 19.79% | 9.90 | 0.95 | 0.19 µg/mL | 0.81 µg/mL | 64.44 ± 9.90% | 9.40 | 0.20 µg/mL | 0.89 µg/mL | 1.88 µg/mL | – |
| COc1ccc(/C=C/C(=O)c2cc(OC)c(OC)c(OC)c2)cc1OC [Chalcone 7] | 85.82 ± 6.36% | 85.05 | 1.64 | 0.18 µg/mL | 0.67 µg/mL | 94.24 ± 2.21% | 139.18 | 0.11 µg/mL | 0.46 µg/mL | – | Amount of haemozoin production [6]: 385.71 ± 4.76 ng/mL |
| C=C[C@H]1C[N@@]2CC[C@H]1C[C@H]2[C@H](O)c1ccnc2ccc(OC)cc12 [QNN, quinine hydrochloride, reference compound] | – | 121.24 | – | – | – | – | – | – | – | – | CC50 at 24 h [7]: 30.3 µg/mL; viability at 24 h, 12.5 µg/mL [7]: 62.62 ± 0.06%; IC50 [3, 11]: 250 ng/mL; IC90 [3, 11]: 1590 ng/mL; inhibition at 6.25 µg/mL ([3]; Plasmodium falciparum, Conc. = 6.25 μg/mL, 24 h, read-out: % Schizont maturation inhibition ± SD (RKL-9)): 71.9 ± 16.3%; hemolysis at 3 h, 12.5 μg/mL [8]: 2.16 ± 0.035% |
| COc1cc(C(=O)C=Cc2ccc(F)cc2)cc(OC)c1OC [Chalcone 4] | 57.69 ± 7.78% | 1.65 | 3.40 | 0.51 µg/mL | 2.26 µg/mL | 47.48 ± 17.68% | 5.60 | 0.15 µg/mL | 0.40 µg/mL | 0.84 µg/mL | – |
| COc1ccc(C=CC(=O)c2cc(OC)ccc2OC)cc1 [Chalcone 2] | 58.02 ± 21.21% | 7.57 | 1.08 | 0.14 µg/mL | 0.36 µg/mL | 71.76 ± 10.61% | 8.15 | 0.13 µg/mL | 0.51 µg/mL | 1.06 µg/mL | Amount of haemozoin production [6]: 464.28 ± 11.9 ng/mL |
| COc1ccc(/C=C/C(=O)c2cc(OC)c(OC)c(OC)c2)cc1 [Chalcone 6] | 43.85 ± 33.23% | 8.74 | 0.54 | 0.19 µg/mL | 0.98 µg/mL | 51.05 ± 42.42% | 4.74 | 0.35 µg/mL | 5.23 µg/mL | 1.66 µg/mL | Amount of haemozoin production [6]: 457.14 ± 38.09 ng/mL |
| COc1cc(OC)c(C(=O)/C=C/c2ccc(OC)c(OC)c2)c(OC)c1 [Chalcone 1] | 49.66 ± 25.46% | 18.96 | 0.68 | 0.23 µg/mL | 1.42 µg/mL | 82.43 ± 20.51% | 12.82 | 0.34 µg/mL | 5.54 µg/mL | 4.36 µg/mL | – |
| COc1cc(C(=O)C=Cc2ccc(N(C)C)cc2)cc(OC)c1OC [Chalcone 5] | 40 ± 20.51% | 36.74 | 1.43 | 0.23 µg/mL | 0.92 µg/mL | 58.65 ± 7.78% | 52.81 | 0.16 µg/mL | 1.08 µg/mL | 8.45 µg/mL | – |
| COc1ccc(OC)c(C(=O)C=Cc2ccc3c(c2)OCO3)c1 [Chalcone 3] | 63.71 ± 2.83% | 26.86 | 1.71 | 0.29 µg/mL | 1.15 µg/mL | 59.26 ± 4.95% | 45.82 | 0.17 µg/mL | 0.75 µg/mL | 7.79 µg/mL | – |
| C=CC(C)(C)c1cc(/C=C/C(=O)c2ccc(O)cc2)c(OC)cc1O [licochalcone] | – | – | – | – | – | – | – | – | – | – | IC50 of licochalcone [9]: 1.43 µg/mL |
| C[C@@H]1CC[C@H]2[C@@H](C)C(=O)O[C@@H]3O[C@@]4(C)CC[C@@H]1[C@]32OO4 [ART, artemisinin, reference compound] | – | 327.4 | – | – | – | – | – | – | – | – | CC50 at 24 h [7]: 0.0491 µg/mL (≈ 174 nM); viability at 24 h, 12.5 ng/mL [7]: 58.92 ± 0.06%; IC50 [3, 12]: 0.15 ng/mL (≈ 0.531 nM); IC90 [3, 12]: 0.15 ng/mL (≈ 0.531 nM); inhibition at 0.00625 µg/mL ([3]; Plasmodium falciparum, artemisinin, Conc. = 6.25 ng/mL, 24 h, read-out: % Schizont maturation inhibition ± SD (RKL-9)): 87.9 ± 2.12%; hemolysis at 3 h, 12.5 ng/mL [8]: 1.94 ± 0.026% |
| COc1cc(C(=O)/C=C/c2ccc3c(c2)OCO3)cc(OC)c1OC [Chalcone 8] | 77.78 ± 1.41% | 8.46 | 0.90 | 0.26 µg/mL | 5.31 µg/mL | 75.17 ± 12.02% | 7.59 | 0.29 µg/mL | 1.01 µg/mL | 2.20 µg/mL | – |
